# According to the SangsterLogP compilation:
row,logP,SMILES
1,6.89,CCCCC(CC)COC(Cn1ccnc1)c1ccc(Cl)cc1Cl (stereo unspecified)
2,5.04,CC(C)=CCOC(Cn1ccnc1)c1ccc(Cl)cc1Cl (stereo unspecified)
3,5.13,CCC(CC)OC(Cn1ccnc1)c1ccc(Cl)cc1Cl (stereo unspecified)
4,4.26,C=C(C)COC(Cn1ccnc1)c1ccc(Cl)cc1Cl (stereo unspecified)
5,6.24,CCC(CC)COC(Cn1ccnc1)c1ccc(Cl)cc1Cl (stereo unspecified)
6,4.9,CCCC(C)OC(Cn1ccnc1)c1ccc(Cl)cc1Cl (stereo unspecified)

# Further lines, the compound ahead of its results:
row,SMILES,logP
1,Clc1ccc(C(Cn2ccnc2)OCC2CCCCC2)c(Cl)c1 (stereo unspecified),6.5
2,C=CCCCOC(Cn1ccnc1)c1ccc(Cl)cc1Cl (stereo unspecified),4.94
3,CC(C)CCOC(Cn1ccnc1)c1ccc(Cl)cc1Cl (stereo unspecified),5.71
4,CCC(C)OC(Cn1ccnc1)c1ccc(Cl)cc1Cl (stereo unspecified),4.5
5,C=CCCOC(Cn1ccnc1)c1ccc(Cl)cc1Cl (stereo unspecified),4.33
